These results are taken from EP0638588A1, “Derivatives of 6,7-Dihydroxy-4-thiaheptonic acid and their use” (TAKEDA CHEMICAL INDUSTRIES, LTD., priority 1993, dated 1995).

One data set relates to leukocytes. The data set can be described thus: Enhancing the number of leukocytes in cyclophosphamide-treated mice. It counts as in vivo, CDF1/Crj mice. Particulars: percentage relative to mice without cyclophosphamide (100%). The method, then:
Six weeks old female CDF1/Crj mice (5 animals per group) were subjected to the experiment. Each animal was orally administered with cyclophosphamide dissolved in physiological saline solution at a dose of 150 mg/kg. From the next day, each animal was administered subcutaneously with the compound suspended in 5% glucose at the following dosage for five days once a day. On the next day after completion of the administration, about 100 µl of peripheral blood was collected from orbital vein using an EDTA-treated glass capillary. Then, the number of leukocytes was counted using an automatic cell analyzer (Sysmex K-2000, Toa Medical Electronics, Japan).

In data set [1] the test system is bone marrow cells of BALB/c mice. The data set can be described thus: Enhancing proliferation of bone marrow cells of mice (MTT reduction method). Particulars: concentration giving 1.3 or more times the proliferation of the group without test compound; 37°C, 3 days. Format: cell-based. On the procedure:
Actions of compound (I) produced in the foregoing Examples on enhancing proliferation of bone marrow cells of mice are shown in Table 2.
To a RPMI 1640 culture medium [Bio-Wittaker Inc. (hereinafter abbreviated as BW), U.S.A.] containing 2 x 10⁶/ml of bone marrow cells of BALB/c mice, 2 mM of L-glutamine, 20 µg/ml of gentamicin (Flow Laboratories, Inc., Scotland), 10% fetal calf serum (BW, U.S.A.) was added a test compound in an adequate concentration, which was incubated at 37°C for 3 days in 5% carbon dioxide in air followed by determination of proliferation of the bone marrow cells by the MTT reduction method [Tada et al., Journal of Immunological Methods, Vol. 93, p.157, 1986].
(Tetrazolium dyes change colour on reduction, which living cells bring about.)

Data set [2] deals with Non adherent bone marrow cells of BALB/c mice. As to the kind of experiment: Enhancing development of AchE positive cells (fluorescence method). Format: cell-based. Particulars: 10 ng/ml; 37°C, 5 days; AchE activity in the group without compound is shown as 1. The source says:
Action of compound (I) on enhancing development of acetylcholine esterase (hereinafter abbreviated as AchE) positive cells are shown in Table 4.
The AchE activity was studied according to a fluorescence method (Ishibashi et al., Proceedings of the National Academy of Science U.S.A., Vol. 86, pp. 5953 to 5957, 1989).
Non adherent bone marrow cells of BALB/c mice (1 x 10⁶ cells/ml) were suspended in Iscove's modification of Dulbecco's medium (Gibco BRL Inc., U.S.A.) containing 1% Neutridoma-SP (Boheringer Mannhaim, Germany). Twenty-five µl of a test compound solution in an adequate concentration was inoculated in a 96-well plate. To each of these solutions in the well was added 100 µl of the non adherent bone marrow cells suspension. After incubation at 37°C for 5 days, 25 µl of 6% glutaraldehyde aqueous solution was added to the well. After standing at 4°C for 30 minutes the mixture was centrifuged (850 x g) at 5°C for 5 minutes and the supernatant was removed. […] To this was added 10 µl of 0.4 mM 7-diethylamino-3-(4'-maleimidylphenyl)-4-methylcoumarin aqueous solution and 100 µl of buffer (pH 5.0) containing 0.2% POPE, 1 mM EDTA and 50 mM sodium acetate and fluorescence emission was determined on a fluorometer (excitation wave length: 365 nm, fluorescence wave length: 450 nm).

The next data set deals with mice. The data set can be described thus: Toxicity test, intravenous administration. It counts as in vivo. Particulars: intravenous administration at 125 mg/kg. The method, then: Intravenous administration of trisodium salt of compound 1 at 125 mg/kg caused no death in mice.

The structures appear in SMILES notation. Structures can show the parent of a compound that is named as a salt. Square brackets hold non-standard residues; d marks the D form. Peptide text beside a SMILES is read from it. * marks the point of attachment. Propyl(2R-PamO,3-PamO) = CCCCCCCCCCCCCCCC(=O)OC[C@H](C*)OC(=O)CCCCCCCCCCCCCCC

`CCCCCCCCCCCCCCCC(=O)OC[C@H](CSC[C@H](NC(=O)CN)C(=O)N[C@@H](CCC(=O)O)C(=O)NCC(=O)N[C@H](CCC(=O)O)C(=O)O)OC(=O)CCCCCCCCCCCCCCC` [Compound 1, (2R,6R)-2-(H-Gly-amino)-6,7-bis(PamO)-4-THT-Glu-Gly-D-Glu-OH] (H-GC(Propyl(2R-PamO,3-PamO))EG[dE]-OH): the Number of leukocytes in the data set on leukocytes (0.50 mg/kg/day subcutaneously for 5 days after oral cyclophosphamide 150 mg/kg) is 137%. The “Minimal Effective Concentration (MEC, ng/ml)” value in data set [1] was determined as 6.25 ng/mL. In addition, in data set [2], the “Degree of AchE Positive Cell” value is listed as 1.92.

For `CCCCCCCCCCCCCCCC(=O)OC[C@H](CSC[C@H](NC(=O)CN)C(=O)N[C@@H](CCC(=O)O)C(=O)NCC(=O)N[C@H](CCC(=O)O)C(=O)O)OC(=O)CCCCCCCCCCCCCCC` [trisodium salt of compound 1] (H-GC(Propyl(2R-PamO,3-PamO))EG[dE]-OH), the death entry in the data set on mice was “no death”.

In the case of `CCCCCCCCCCCCCCCC(=O)OC[C@H](CSC[C@H](NC(=O)CNC(=O)[C@@H](N)CCC(=O)O)C(=O)N[C@@H](CCC(=O)O)C(=O)NCC(=O)N[C@H](CCC(=O)O)C(=O)O)OC(=O)CCCCCCCCCCCCCCC` [Compound 4, (2R,6R)-2-(H-Glu-Gly-amino)-6,7-bis(PamO)-4-THT-Glu-Gly-D-Glu-OH] (H-EGC(Propyl(2R-PamO,3-PamO))EG[dE]-OH), the Number of leukocytes in the data set on leukocytes (0.13 mg/kg/day subcutaneously for 5 days after oral cyclophosphamide 150 mg/kg) was determined as 108%.

With `CCCCCCCCCCCCCCCC(=O)OC[C@H](CSC[C@H](NC(=O)[C@@H](N)Cc1ccc(O)cc1)C(=O)N[C@@H](CCC(=O)O)C(=O)NCC(=O)N[C@H](CCC(=O)O)C(=O)O)OC(=O)CCCCCCCCCCCCCCC` [Compound 5, (2R,6R)-2-(H-Tyr-amino)-6,7-bis(PamO)-4-THT-Glu-Gly-D-Glu-OH] (H-YC(Propyl(2R-PamO,3-PamO))EG[dE]-OH), the “Minimal Effective Concentration (MEC, ng/ml)” value in data set [1] turned out to be 6.25 ng/mL.
